Test results taken from patent US11952593B2, “Detection and treatment of daughter number variations in cancer cells” (PharmacoGenetics Limited, priority 2020, dated 2024).

Legend:
[1] = system: non-cancerous RPE1 retina epithelial cells; assay: Time-lapse microscopy count of multi-daughter divisions (DNV frequency), RPE1; assay type: cell-based; conditions: RPE1, 24 hours; wogonin 50 μM, 5-FU 20 μM
Method: (§1) To investigate DNVs, the human HepG2 hepatocellular carcinoma, HeLa cervical adenocarcinoma, and A549 lung adenocarcinoma cell lines, as well as the non-cancerous RPE1 line of hTRET-immortalized retina epithelial cells, were obtained from the American Type Culture Collection (ATCC, Manassas, Va., USA) and cultivated in Dulbecco's Modified Eagle Medium (DMEM) supplemented with 10% fetal bovine serum (Gemini Bio-Products, Sacramento. Calif.) under a humidified atmosphere of 5% C02 at 37° C. After 24 hours, the old medium was replaced by acidic DMEM growth medium buffered by 15 mM 2-(N-morpholino)-ethanesulfonic acid.HCl (MES) at pH 6.4, neutral DMEM growth medium buffered by 15 mM 3-(N-morpholino)propanesulfonic acid.HCl (MOPS) at pH 7.4, alkaline growth medium buffered by 15 mM tris(hydroxymethyl)aminomethane.HCl (Tris) at pH 8.4, or neutral DMEM growth medium containing wogonin (50 μM) or 5-FU (20 μM). Using phase contrast microscopy, time-lapse photographs were recorded at different positions of the wells at 15-minute intervals for 24 hours using the Nikon ECLIPSE Ti Live Cell Imaging Observatory, enabling the count of P1 through P8 patterns at the end of Stage 2 of the DNV process (FIG. 1). All the images were photographed at 100× magnification. Altemately, using fluorescence microscopy, the cells were seeded into 12 well plates at 1×10^3 per well and stained with Hoechst 33342 ([…], Thermofisher) for 30 minutes in an incubator at 37° C. After 30 minutes, culture medium was replaced by various treatment media and placed under the Nikon ECLIPSE Ti Live Cell Imaging Observatory for 24 hours. For the HeLa, HepG2 and A549 cells, the various treatments were also extended to 5 days. Because the RPE1 cells yielded no DNVs after 24 hours of drug treatment, its treatment periods were not extended beyond 24 hours. All the cells were manually traced and quantified using the ImageJ software. DNV frequencies were estimated by dividing the total number of multi-daughter ([…]) divisions by the total number of cell divisions. Fluorescence staining and time-lapse microscopy were employed to differentiate between the bi-, tri-, tetra- and penta-daughter cell divisions, and to estimate the percentages of the P1 through P8 patterns in the final daughter cells generated by each of the DNV events. GraphPad Prism 5.0 software was employed for statistical analysis, and the results were presented as the mean. Significance was determined using the Student t-test (two-tailed, unpaired/unequal variances).

[2] = system: HepG2 hepatocellular carcinoma cells; assay: Time-lapse microscopy count of multi-daughter divisions (DNV frequency), HepG2; assay type: cell-based, human; conditions: wogonin 50 μM, 5-FU 20 μM
Method: as §1

HeLa cells = assay: Cell cytotoxicity assay (crystal violet), HeLa; assay type: cell-based, human; conditions: 24 hours, 50 μM wogonin, 20 μM 5-FU, absorbance 600 nm
Method: Cell cytotoxicity assay was carried out on 96 well plate, where cells were treated with neutral, acidic, alkaline pH and anti-cancer drug wogonin or 5-FU. After 24 hours, crystal violet (8% in methanol), and dye absorbed by live cells was extracted with sodium citrate (0.1 M) in 50% ethanol. Absorbance was read at 600 nm.
HepG2, HeLa and A549 cells were grown to a monolayer density of 1×10^3 per well in neutral growth medium overnight. There upon the cells were changed to various treatment media at neutral, acidic and alkaline pHs, neutral medium containing 50 μM wogonin and neutral medium containing 20 μM 5-FU, for 24 hours at 37° C. in humidified 5% CO2 atmosphere. Following the treatment, floating cells were removed, and the attached cells were stained with crystal violet (8% in methanol); the dye absorbed by the live cells was extracted with sodium citrate (0.1 M) in 50% ethanol [1 25], and quantitated by absorbance at 600 nm.

Row | SMILES | Bi-daughter divisions, % of total divisions [1] [%] | Bi-daughter divisions, number [1] | Sum of Multi-daughter Divisions, number [1] | Total number of observed divisions [1] | Tri-daughter divisions, number [1] | Bi-daughter divisions, % of total divisions ([2]; HepG2, 24 hours) [%] | Bi-daughter divisions, number ([2]; HepG2, 24 hours) | Sum of Multi daughter Divisions, % of total mitotic divisions ([2]; HepG2, 24 hours) [%] | Sum of Multi daughter Divisions, number ([2]; HepG2, 24 hours) | Tetra-daughter divisions, % of total divisions ([2]; HepG2, 24 hours) [%] | Tetra-daughter divisions, number ([2]; HepG2, 24 hours) | Total number of observed divisions ([2]; HepG2, 24 hours) | Tri-daughter divisions, % of total divisions ([2]; HepG2, 24 hours) [%] | Tri-daughter divisions, number ([2]; HepG2, 24 hours) | ≥Tetra-daughter divisions, number ([2]; HepG2, 24 hours) | Bi-daughter divisions, % of total divisions ([2]; HepG2, 5 days) [%] | Bi-daughter divisions, number ([2]; HepG2, 5 days) | Sum of Multi-daughter Divisions, % of total mitotic divisions ([2]; HepG2, 5 days) [%] | Sum of Multi-daughter Divisions, number ([2]; HepG2, 5 days) | Tetra-daughter divisions, % of total divisions ([2]; HepG2, 5 days) [%] | also measured
1 | COc1c(O)cc(O)c2c(=O)cc(-c3ccccc3)oc12 [Wogonin, wogonin] | 100 | 106 | 0 | 106 | 0 | 97.0 | 2482 | 2.97 | 76 | 0.70 | 18 | 2558 (100) | 2.19 | 56 | 2 | 83.9 | 262 | 16.0 | 50 | 3.8 | ≥Tetra-daughter divisions, % of total divisions ([2]; HepG2, 24 hours): 0.08%; Tetra-daughter divisions, number ([2]; HepG2, 5 days): 12; Total Divisions ([2]; HepG2, 5 days): 312 (100); Tri-daughter divisions, % of total divisions ([2]; HepG2, 5 days): 16.0%; Tri-daughter divisions, number ([2]; HepG2, 5 days): 50; ≥Tetra-daughter divisions, % of total divisions ([2]; HepG2, 5 days): 2.5%; ≥Tetra-daughter divisions, number ([2]; HepG2, 5 days): 8; Sum of Multi-daughter Divisions, % of total mitotic divisions ([2]; HepG2, 5 days, listed as wogonin): 18.0%; Cell death as compared to neutral pH (HeLa cells): increased cell death
2 | O=c1[nH]cc(F)c(=O)[nH]1 [5-FU, 5-flurouracil] | 100 | 15 | 0 | 15 | 0 | 99.1 | 1995 | 0.94 | 19 | 0.25 | 5 | 2014 (100) | 0.69 | 14 | 0 | 90.6 | 270 | 9.30 | 28 | 2.6 | Tetra-daughter divisions, number ([2]; HepG2, 5 days): 8; Total Divisions ([2]; HepG2, 5 days): 298 (100); Tri-daughter divisions, % of total divisions ([2]; HepG2, 5 days): 5.7%; Tri-daughter divisions, number ([2]; HepG2, 5 days): 17; ≥Tetra-daughter divisions, % of total divisions ([2]; HepG2, 5 days): 1.0%; ≥Tetra-daughter divisions, number ([2]; HepG2, 5 days): 3; Cell death as compared to neutral pH (HeLa cells): increased cell death
